# How the values were obtained:
# Assay type in all cases: functional
# Gerbillinae [1] = assay: In vitro inhibitory activity against lipid peroxidation in gerbils
# Gerbillinae [2] = assay: In vivo neuroprotective activity in gerbils (neuronal cell survival) after ischemic injury
# Gerbillinae [3] = assay: In vivo neuroprotective activity in gerbils (neuronal cell survival) before ischemic injury
Structure (SMILES),IC50 (Gerbillinae [1]) [µM],Cell Survival (Gerbillinae [2]) [%],Cell Survival (Gerbillinae [3]) [%]
CC(C)(C)N(O)c1ccc(C(=O)NCc2ccccn2)cc1,11.1,,
CC(C)(C)N(O)c1ccc(C(=O)Nc2nccs2)cc1,1.44,81,57
CC(C)(C)N(O)c1ccc(C(=O)Nc2ccccn2)cc1,4.3,,
O=c1c2ccccc2[se]n1-c1ccccc1 [EBSELEN],68.9,58,58

# — ChEMBL document CHEMBL1136096, “Design and biological evaluation of novel antioxidants containing N-t-Butyl-N-hydroxylaminophenyl moieties” (Bioorg Med Chem Lett, 2003)
